Test results taken from US8206732B2, “Pyrithione biocides enhanced by silver, copper, or zinc ions” (Arch Chemicals, Inc., priority 1999, dated 2012).
Several values for one entry are separate records, joined by “and”; a condition that tells them apart may be missing. Equal entries are not always repeated.

Legend:
[1] = tested on: Fusarium sp. and Cephalosporium sp.; experiment: Various mixtures of NaPT and Zn(II) against fungi in 5% metalworking fluid (Example 8, Table 10b); format: cell-based
[2] = tested on: E. coli 8739 free-living cells; experiment: Viable free-living cells in bulk metalworking fluid (Example 5); format: cell-based, Escherichia coli; conditions: 100 PPM NaPT, 10 PPM Zn (II) or both, 4 days after treatment
[3] = tested on: mixed bacteria (Pseudomonas aeruginosa 9027, Escherichia coli 8739, Pseudomonas fluorescens 12201, Pseudomonas rubescens 12202, Pseudomonas putida); experiment: Various mixtures of NaPT and Zn(II) against bacteria in 5% metalworking fluid (Example 8, Table 10a); format: cell-based, Pseudomonas spp.
E. coli 8739 biofilm = experiment: Viable biofilm cells on discs in metalworking fluid (Example 5); format: cell-based, Escherichia coli; conditions: polycarbonate disc, 100 PPM NaPT, 10 PPM Zn (II) or both, 4 days after treatment
[4] = tested on: Aspergillus niger ATCC 6275; experiment: MIC in Tryptic Soy Broth, microtiter (Example 1); format: cell-based; conditions: 28° C.
[5] = tested on: Staphylococcus aureus 27217; experiment: Checkerboard MIC test, pyrithiones with silver salts; format: cell-based; conditions: NaPT alone or in the inhibitory mixture with silver salt; TSB pH 7.3, 35° C., 1 to 2 days
[6] = tested on: Staphylococcus aureus ATCC 27217; experiment: Zone of inhibition test (paper disc on TSA); format: cell-based; conditions: 6.5 mm discs; 0.135% pyrithione, 0.1% ZnCl2 or both; 28° C., 24 hr
[7] = semi-synthetic, NaPT 100 PPM, Day 1
[8] = semi-synthetic, NaPT 100 PPM, Day 1, tube of the Day 1/Day 4 series
[9] = semi-synthetic, NaPT 100 PPM, Day 2
[10] = semi-synthetic, NaPT 100 PPM, Day 4
[11] = semi-synthetic, NaPT 100 PPM, Day 7
[12] = semi-synthetic, NaPT 300 PPM, Day 1
[13] = semi-synthetic, NaPT 300 PPM, Day 2
[14] = semi-synthetic, NaPT 300 PPM, Day 7
[15] = semi-synthetic, NaPT 500 PPM, Day 2
[16] = semi-synthetic, NaPT 500 PPM, Day 7
[17] = soluble oil, NaPT 100 PPM, Day 1
[18] = soluble oil, NaPT 100 PPM, Day 1, tube of the Day 1/Day 4 series
[19] = soluble oil, NaPT 100 PPM, Day 2
[20] = soluble oil, NaPT 100 PPM, Day 4
[21] = soluble oil, NaPT 100 PPM, Day 7
[22] = soluble oil, NaPT 300 PPM, Day 1
[23] = soluble oil, NaPT 300 PPM, Day 2
[24] = soluble oil, NaPT 300 PPM, Day 7
[25] = soluble oil, NaPT 500 PPM, Day 2
[26] = soluble oil, NaPT 500 PPM, Day 7
[27] = synthetic, NaPT 100 PPM, Day 1, tube of the Day 1/Day 4 series

[Na+].[O-][n+]1ccccc1[S-] [NaPT, sodium pyrithione]
Fungi/ml [1, 7]: 1.1 × 10^4 Fungi/ml | Fungi/ml [1, 8]: 2.0 × 10^4 Fungi/ml | Fungi/ml [1, 9]: 1.3 × 10^3 Fungi/ml | Fungi/ml [1, 10]: 1.0 × 10^4 Fungi/ml | Fungi/ml [1, 11]: 0 Fungi/ml | Fungi/ml [1, 12]: 3.0 × 10^3 Fungi/ml | Fungi/ml [1, 13]: 570 Fungi/ml | Fungi/ml [1, 14]: 0 Fungi/ml | Fungi/ml ([1]; semi-synthetic, NaPT 500 PPM, Day 1): 9.0 × 10^3 Fungi/ml | Fungi/ml [1, 15]: 300 Fungi/ml | Fungi/ml [1, 16]: 0 Fungi/ml | Fungi/ml [1, 17]: 3.2 × 10^4 Fungi/ml | Fungi/ml [1, 18]: 3.6 × 10^4 Fungi/ml | Fungi/ml [1, 19]: 2.9 × 10^4 Fungi/ml | Fungi/ml [1, 20]: 2.9 × 10^4 Fungi/ml | Fungi/ml [1, 21]: 1.5 × 10^4 Fungi/ml | Fungi/ml [1, 22]: 1.7 × 10^4 Fungi/ml | Fungi/ml [1, 23]: 1.0 × 10^4 Fungi/ml | Fungi/ml [1, 24]: 560 Fungi/ml | Fungi/ml ([1]; soluble oil, NaPT 500 PPM, Day 1): 1.9 × 10^4 Fungi/ml | Fungi/ml [1, 25]: 2.8 × 10^4 Fungi/ml | Fungi/ml [1, 26]: 610 Fungi/ml | Fungi/ml ([1]; synthetic, NaPT 100 PPM, Day 1): 3.0 × 10^4 Fungi/ml | Fungi/ml [1, 27]: 9.0 × 10^3 Fungi/ml | Fungi/ml ([1]; synthetic, NaPT 100 PPM, Day 2): 2.0 × 10^3 Fungi/ml | Fungi/ml ([1]; synthetic, NaPT 100 PPM, Day 4): 5.0 × 10^3 Fungi/ml | Fungi/ml ([1]; synthetic, NaPT 100 PPM, Day 7): 2.0 × 10^3 Fungi/ml | Fungi/ml ([1]; synthetic, NaPT 300 PPM, Day 1): 2.9 × 10^4 Fungi/ml | Fungi/ml ([1]; synthetic, NaPT 300 PPM, Day 2): 2.1 × 10^4 Fungi/ml | Fungi/ml ([1]; synthetic, NaPT 300 PPM, Day 7): 1.2 × 10^4 Fungi/ml | Fungi/ml ([1]; synthetic, NaPT 500 PPM, Day 1): 2.7 × 10^4 Fungi/ml | Fungi/ml ([1]; synthetic, NaPT 500 PPM, Day 2): 4.0 × 10^3 Fungi/ml | Fungi/ml ([1]; synthetic, NaPT 500 PPM, Day 7): 3.0 × 10^3 Fungi/ml | viable free-living microorganisms ([2]; 5% solub. oil MWF): 5.3 × 10^7 cells/ml | viable free-living microorganisms ([2]; 10% TSB): 9.1 × 10^8 cells/ml | Bacteria/ml [3, 7]: 1.8 × 10^5 Bacteria/ml | Bacteria/ml [3, 8]: 1.7 × 10^4 Bacteria/ml | Bacteria/ml [3, 9]: 1.9 × 10^5 Bacteria/ml | Bacteria/ml [3, 10]: 1.2 × 10^4 Bacteria/ml | Bacteria/ml [3, 11]: 510 Bacteria/ml | Bacteria/ml [3, 12]: 1.2 × 10^5 Bacteria/ml | Bacteria/ml [3, 13]: 0 Bacteria/ml | Bacteria/ml [3, 14]: 0 Bacteria/ml | Bacteria/ml [3, 15]: 0 Bacteria/ml | Bacteria/ml [3, 16]: 0 Bacteria/ml | Bacteria/ml [3, 17]: 2.4 × 10^5 Bacteria/ml | Bacteria/ml [3, 18]: 5.9 × 10^6 Bacteria/ml | Bacteria/ml [3, 19]: 6.0 × 10^3 Bacteria/ml | Bacteria/ml [3, 20]: 1.5 × 10^6 Bacteria/ml | Bacteria/ml [3, 21]: 2.0 × 10^4 Bacteria/ml | Bacteria/ml [3, 22]: 7.1 × 10^4 Bacteria/ml | Bacteria/ml [3, 23]: 9.0 × 10^3 Bacteria/ml | Bacteria/ml [3, 24]: 0 Bacteria/ml | Bacteria/ml [3, 25]: 450 Bacteria/ml | Bacteria/ml [3, 26]: 0 Bacteria/ml | Bacteria/ml ([3]; synthetic, NaPT 100 PPM, Day 1): 2.9 × 10^6 Bacteria/ml | Bacteria/ml [3, 27]: 2.1 × 10^6 Bacteria/ml | Bacteria/ml ([3]; synthetic, NaPT 100 PPM, Day 2): 1.7 × 10^5 Bacteria/ml | Bacteria/ml ([3]; synthetic, NaPT 100 PPM, Day 4): 2.0 × 10^5 Bacteria/ml | Bacteria/ml ([3]; synthetic, NaPT 100 PPM, Day 7): 1.5 × 10^4 Bacteria/ml | Bacteria/ml ([3]; synthetic, NaPT 300 PPM, Day 1): 5.0 × 10^4 Bacteria/ml | Bacteria/ml ([3]; synthetic, NaPT 300 PPM, Day 2): 4.0 × 10^3 Bacteria/ml | Bacteria/ml ([3]; synthetic, NaPT 300 PPM, Day 7): 0 Bacteria/ml | Bacteria/ml ([3]; synthetic, NaPT 500 PPM, Day 1): 1.2 × 10^5 Bacteria/ml | Bacteria/ml ([3]; synthetic, NaPT 500 PPM, Day 2): 1.0 × 10^3 Bacteria/ml | Bacteria/ml ([3]; synthetic, NaPT 500 PPM, Day 7): 50 Bacteria/ml | viable biofilm microorganisms (E. coli 8739 biofilm; 5% solub. oil MWF): 1.6 × 10^5 cells/cm^2 | viable biofilm microorganisms (E. coli 8739 biofilm; 10% TSB): 1.4 × 10^6 cells/cm^2 | MIC NaPT (with 0.5 ppm Cu) ([4]; TSB with 0.5 ppm Cu (II), 7-8 days): 8 ppm | MIC ([4]; TSB, incubated 7-8 days, single agent (NaPT without Cu)): 128 ppm | MIC NaPT [5]: 4 ppm and 8 ppm | Zone of Inhibition [6]: 31 mm
